Assay results as given in US20230002375A1, “HYDROPYRAZINO[1,2-B]ISOQUINOLINE COMPOUNDS FOR THE TREATMENT OF AUTOIMMUNE DISEASE” (Hoffmann-La Roche Inc., priority 2019, published 2023).

Experiments:
human TLR7 = molecular target: T1, human TLR7 (Homo sapiens, UniProt Q9NYK1); test: HEK293-Blue-hTLR-7 cells assay (SEAP reporter, R848 stimulation); assay type: cell-based; conditions: HEK293-Blue-hTLR7 cells, R848, 20 hrs incubation; read-out: HEK/hTLR7 IC50
T1 sequence (Q9NYK1 27-1049): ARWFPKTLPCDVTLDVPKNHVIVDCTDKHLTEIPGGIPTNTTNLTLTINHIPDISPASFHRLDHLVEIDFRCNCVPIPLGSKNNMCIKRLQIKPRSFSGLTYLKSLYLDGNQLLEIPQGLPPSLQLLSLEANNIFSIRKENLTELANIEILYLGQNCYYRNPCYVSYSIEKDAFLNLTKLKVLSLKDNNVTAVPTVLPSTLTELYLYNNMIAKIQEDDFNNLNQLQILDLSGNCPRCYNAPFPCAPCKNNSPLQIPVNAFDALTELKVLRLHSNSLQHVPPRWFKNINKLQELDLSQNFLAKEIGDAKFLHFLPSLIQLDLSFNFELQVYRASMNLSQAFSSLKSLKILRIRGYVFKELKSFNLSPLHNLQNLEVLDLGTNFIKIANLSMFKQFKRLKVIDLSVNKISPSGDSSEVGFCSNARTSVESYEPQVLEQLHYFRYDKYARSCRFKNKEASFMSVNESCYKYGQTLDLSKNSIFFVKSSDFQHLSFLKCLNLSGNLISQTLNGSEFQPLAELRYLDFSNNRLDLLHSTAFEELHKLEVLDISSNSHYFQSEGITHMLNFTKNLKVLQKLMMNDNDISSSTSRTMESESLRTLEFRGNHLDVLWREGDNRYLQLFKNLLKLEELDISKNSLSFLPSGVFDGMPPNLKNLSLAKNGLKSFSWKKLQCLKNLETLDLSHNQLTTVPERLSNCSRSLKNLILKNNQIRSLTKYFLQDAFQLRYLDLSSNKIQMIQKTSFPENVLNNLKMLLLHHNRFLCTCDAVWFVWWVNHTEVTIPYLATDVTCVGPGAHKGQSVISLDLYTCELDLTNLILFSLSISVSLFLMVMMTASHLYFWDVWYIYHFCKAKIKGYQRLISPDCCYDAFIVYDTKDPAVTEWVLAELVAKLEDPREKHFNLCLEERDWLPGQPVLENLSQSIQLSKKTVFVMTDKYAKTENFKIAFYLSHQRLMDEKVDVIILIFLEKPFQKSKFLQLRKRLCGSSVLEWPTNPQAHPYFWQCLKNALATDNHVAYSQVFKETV
Procedure: The following tests were carried out in order to determine the activity of the compounds of formula (I), (Ia) or (Ib) in HEK293-Blue-hTLR-7/8/9 cells assay.
HEK293-Blue-hTLR-7 Cells Assay:
A stable HEK293-Blue-hTLR-7 cell line was purchased from InvivoGen (Cat.#: hkb-htlr7, San Diego, Calif., USA). These cells were originally designed for studying the stimulation of human TLR7 by monitoring the activation of NF-κB. A SEAP (secreted embryonic alkaline phosphatase) reporter gene was placed under the control of the IFN-β minimal promoter fused to five NF-κB and AP-1-binding sites. The SEAP was induced by activating NF-κB and AP-1 via stimulating HEK-Blue hTLR7 cells with TLR7 ligands. Therefore the reporter expression was declined by TLR7 antagonist under the stimulation of a ligand, such as R848 (Resiquimod), for incubation of 20 hrs. The cell culture supernatant SEAP reporter activity was determined using QUANTI-Blue™ kit (Cat.#: rep-qb1, Invivogen, San Diego, Ca, USA) at a wavelength of 640 nm, a detection medium that turns purple or blue in the presence of alkaline phosphatase.
HEK293-Blue-hTLR7 cells were incubated at a density of 250,000˜450,000 cells/mL in a volume of 170 μL in a 96-well plate in Dulbecco's Modified Eagle's medium (DMEM) containing 4.5 g/L glucose, 50 U/mL penicillin, […], […], 2 mM L-glutamine, 10% (v/v) heat-inactivated fetal bovine serum with addition of 20 μL test compound in a serial dilution in the presence of final DMSO at 1% and 10 μL of 20 uM R848 in above DMEM, perform incubation under 37° C. in a CO2 incubator for 20 hrs. Then 20 μL of the supernatant from each well was incubated with 180 μL Quanti-blue substrate solution at 37° C. for 2 hrs and the absorbance was read at 620-655 nm using a spectrophotometer. The signaling pathway that TLR7 activation leads to downstream NF-κB activation has been widely accepted, and therefore similar reporter assay was modified for evaluating TLR7 antagonist.

[1] = Human microsomal stability assay; assay type: in vitro ADME; conditions: human liver microsomes, 1 μM test compound, 0.5 mg/mL protein, 37° C.; low <7.0, medium 7.0-16.2, high 16.2-23.2 mL/min/kg
Procedure: Human Microsomal Stability Assay
Human liver microsomes (Cat.NO.: 452117, Corning, USA) were preincubated with test compound for 10 minutes at 37° C. in 100 mM potassium phosphate buffer, pH 7.4. The reactions were initiated by adding NADPH regenerating system. The final incubation mixtures contained 1 μM test compound, 0.5 mg/mL liver microsomal protein, 1 mM MgCl2, 1 mM NADP, 1 unit/mL isocitric dehydrogenase and 6 mM isocitric acid in 100 mM potassium phosphate buffer, pH 7.4. After incubation times of 0, 3, 6, 9, 15 and 30 minutes at 37° C., 300 μL of cold ACN (including internal standard) was added to 100 μL incubation mixture to terminate the reaction. Following precipitation and centrifugation, 100 uL supernatant will be taken out and added 300 uL water. The amount of compound remaining in the samples was determined by LC-MS/MS. Controls of no NADPH regenerating system at zero and 30 minutes were also prepared and analyzed. The results were categorized as: low (<7.0 mL/min/kg), medium (7.0-16.2 mL/min/kg) and high (16.2-23.2 mL/min/kg).

- IC50 (human TLR7): 21.8 nM
- CL(h) [1]: 9.3 mL/min/kg
SMILES: C[C@@H]1CN(c2ccc(C#N)c3ncccc23)C[C@@H]2Cc3cc(N4CC5NCCOC5C4)ccc3CN21 (stereo in doubt) [Example 10, 5-[(4R,11aS)-9-[(4aS,7aS)-3,4,4a,5,7,7a-hexahydro-2H-pyrrolo[3,4-b][1,4]oxazin-6-yl]-4-methyl-1,3,4,6,11,11a-hexahydropyrazino[1,2-b]isoquinolin-2-yl]quinoline-8-carbonitrile]
